Where a name gives a salt, the structure may show the parent alone.
Tests used:
[1] = target: T1, Des1 (h) (Homo sapiens, UniProt O15121); test: Measurement of Dihydroceramide Desaturase-1 (Des-1) activity in intact Jurkat cells labeled with DhCer-C6-NBD (HPLC); assay type: cell-based; details: for IC50: intact Jurkat cells, given as concentration range, or <X / >X if measured at one concentration X only, read-out: Des1 (h) Jurkat IC50
T1 construct: endogenous in cells; host or cells: parental Jurkat cells
T1 sequence (O15121 1-323): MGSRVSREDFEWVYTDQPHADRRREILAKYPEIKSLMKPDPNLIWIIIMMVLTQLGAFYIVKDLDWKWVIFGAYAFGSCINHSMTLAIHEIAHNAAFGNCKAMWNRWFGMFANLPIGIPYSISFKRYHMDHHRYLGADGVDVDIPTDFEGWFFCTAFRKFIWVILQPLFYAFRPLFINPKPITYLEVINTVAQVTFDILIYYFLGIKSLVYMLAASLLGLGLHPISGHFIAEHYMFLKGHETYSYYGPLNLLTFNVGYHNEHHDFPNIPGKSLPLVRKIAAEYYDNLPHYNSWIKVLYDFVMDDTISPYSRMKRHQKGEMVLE
Procedure: Measurement of Dihydroceramide Desaturase-1 (Des-1) Activity
Compounds were assessed for Des-1 inhibitory activity. Measurement of Des1 activity was performed by HPLC using intact Jurkat cells labeled with DhCer-C6-NBD as described previously (Munoz-Olaya, J. M. et al. ChemMedChem 2008, 3, 946-953) with modifications to enhance sensitivity and reproducibility. These modifications included the use of parental Jurkat cells, 0.5% serum in the culture media, and cell harvesting via centrifugation at 500×g to maximise ceramide extraction. Extracted samples (50 ul) were analysed on a Waters HPLC coupled to a fluorescence detector using a 30 cm C18 reverse-phase column eluted with 1 ml/min 20% H2O and 80% acetonitrile, both with a 0.1% of trifluoroacetic acid. NBD-labelled substrate and product were quantitated with an excitation and emission wavelengths of 465 nm and 530 nm, respectively.

[2] = system: Connective Tissue Growth Factor (CTGF) gene expression; test: Real time quantitative PCR in TGFβ-stimulated human hepatic stellate cells (LX2) to detect CTGF gene expression; assay type: cell-based; details: CTGF mRNA in TGFβ-stimulated LX2 cells vs vehicle control; for inhibition at 5 µM: LX-2, 5 μM; for inhibition at 1 µM: LX-2, 1 μM
Procedure: Real Time Quantitative Polymerase Chain Reaction in Human Hepatic Stellate Cells (LX2) to Detect Connective Tissue Growth Factor (CTGF) Gene Expression The hepatic stellate cell line, LX2 was maintained in DMEM (LifeTechnologies) with 2% heat-inactivated FBS, 100U penicillin (LifeTechnologies), 0.1 mg/mL streptomycin (LifeTechnologies), and 2 mM L-glutamine (LifeTechnologies) at 37° C. with 5% CO2. Cells were seeded into 6-well plates (200,000 cells per well, 2 mLs media) and grown overnight. The cells were changed to 2 mLs 0.5% FBS media for 24 hours prior to treatment. Treatments were added in 2 mLs fresh 0.5% FBS media (vehicle control, long/mL TGFβ alone (R&D Systems), 10 ng/mL TGFβ+inhibitors) and incubated for 24 hours. […] RNA was extracted using Qiagen RNeasy kit (cat #74104), according to manufacturer's instructions. RNA (1 μg) was used to generate cDNA using the Qiagen Quantitect Reverse Transcription Kit (cat #205311), and stored at -20° C. cDNA was diluted (1:25 final) and combined with Sybr Green (Qiagen cat #204143), forward and reverse primers (50 ng each) and run on Real Time PCR Thermocycler machine (RG-6000, Corbett) with the following PCR conditions: Hold 1: 50° C. for 2 min; Hold 2: 95° C. for 15 min; Cycling: 45 cycles of: 95° C. for 30 sec, 58° C. for 21 sec, 72° C. for 15 sec, Hold 3: 72° C. for 30 sec, Melt: 72° C. to 99° C. GAPDH primers (Forward: [NT]; Reverse: [NT] primers (Forward: [NT]; Reverse: [NT] primers available from Origene, cat #HP205671)].

Row | SMILES | IC50 [1] [nM] | inhibition at 1 µM ([1]; Jurkat cells, 1 μM) [%] | further results
1 | O=C(NCC(O)CO)c1ccc(Nc2ncc(-c3ccc(Cl)cn3)o2)cn1 (racemic) [Compound 116, rac-5-((5-(5-Chloropyridin-2-yl)oxazol-2-yl)amino)-N-(2,3-dihydroxypropyl)picolinamide hydrochloride] | < 1000 |  | inhibition at 5 µM [2]: 70 to 80%
2 | N/C(=N\O)c1ccc(Nc2ncc(-c3ccc(Cl)cn3)o2)cn1 [Compound 90, 5-((5-(5-Chloropyridin-2-yl)oxazol-2-yl)amino)-N′-hydroxypicolinimidamide] | < 1000 |  | inhibition at 5 µM [2]: > 90%
3 | N/C(=N\O)c1ccc(Nc2ncc(-c3ccc(OC(F)(F)F)cn3)o2)cn1 [Compound 99, N′-Hydroxy-5-((5-(5-(trifluoromethoxy)pyridin-2-yl)oxazol-2-yl)amino)picolinimidamide] | > 1000 | 47 | inhibition at 1 µM [2]: 1 to 10%; inhibition at 10 µM ([2]; LX-2, 10 μM): 70 to 80%
4 | N/C(=N/O)c1cnc(Nc2ncc(-c3ccc(Cl)cn3)o2)cn1 [Compound 102, 5-((5-(5-Chloropyridin-2-yl)oxazol-2-yl)amino)-N′-hydroxypyrazine-2-carboximidamide] | < 1000 |  | inhibition at 5 µM [2]: 70 to 80%
5 | N/C(=N/O)c1ccc(Nc2cnn(-c3ccc(Cl)cn3)c2)cn1 [Compound 103, 5-((1-(5-Chloropyridin-2-yl)-1H-pyrazol-4-yl)amino)-N′-hydroxypicolinimidamide] | < 1000 |  | inhibition at 5 µM [2]: 70 to 80%
6 | N/C(=N\O)c1cnc(Nc2ncn(-c3ccc(C(F)(F)F)cc3)n2)cn1 [Compound 106, N′-Hydroxy-5-((1-(4-(trifluoromethyl)phenyl)-1H-1,2,4-triazol-3-yl)amino)pyrazine-2-carboximidamide] | < 1000 |  | inhibition at 1 µM [2]: 30 to 40%
7 | N/C(=N/O)c1ccc(Nc2ncn(-c3ccc(C(F)(F)F)cn3)n2)cn1 [Compound 107, N′-Hydroxy-5-((1-(5-(trifluoromethyl)pyridin-2-yl)-1H-1,2,4-triazol-3-yl)amino)picolinimidamide] | < 1000 |  | inhibition at 5 µM [2]: > 90%
8 | N/C(=N\O)c1ccc(Nc2nc(-c3ccc(C(F)(F)F)cc3)co2)cn1 [Example 60, N′-Hydroxy-5-((4-(4-(trifluoromethyl)phenyl)oxazol-2-yl)amino)picolinimidamide] | < 1000 |  | 
9 | N/C(=N\O)c1ccc(Nc2ncc(-c3ccc(C(F)(F)F)cn3)o2)nn1 [Example 61, N′-hydroxy-6-((5-(5-(trifluoromethyl)pyridin-2-yl)oxazol-2-yl)amino)pyridazine-3-carboximidamide] | < 100 |  | 
10 | N/C(=N/O)c1ccc(Nc2ncc(-c3ccc(C4CC4)cn3)o2)cn1 [Example 62, 5-((5-(5-Cyclopropylpyridin-2-yl)oxazol-2-yl)amino)-N′-hydroxypicolinimidamide] | > 1000 | 42 | 
11 | N/C(=N\O)c1cnc(Nc2ncc(-c3ccc(C(F)(F)F)cc3)o2)nc1 [Example 63, N′-Hydroxy-2-((5-(4-(trifluoromethyl)phenyl)oxazol-2-yl)amino)pyrimidine-5-carboximidamide] | > 1000 | 23 | 
12 | N/C(=N/O)c1ccc(Nc2ncc(-c3ccc(N4CC(F)(F)C4)cc3)o2)cn1 [Example 64, 5-((5-(4-(3,3-Difluoroazetidin-1-yl)phenyl)oxazol-2-yl)amino)-N′-hydroxypicolinimidamide] | > 1000 | 23 | 
13 | N/C(=N/O)c1ccc(Nc2ncc(-c3ncc(C(F)(F)F)cn3)o2)cn1 [Example 65, N′-Hydroxy-5-((5-(5-(trifluoromethyl)pyrimidin-2-yl)oxazol-2-yl)amino)picolinimidamide] | > 1000 | 26 | 
14 | N/C(=N/O)c1ccc(Nc2ncc(-c3cnc(C(F)(F)F)cn3)o2)cn1 [Example 66, N′-Hydroxy-5-((5-(5-(trifluoromethyl)pyrazin-2-yl)oxazol-2-yl)amino)picolinimidamide] | > 1000 | 47 | 
15 | Oc1ccc(Nc2nnc(-c3ccc(OC(F)(F)F)cc3)o2)nc1 [Example 67, 6-((5-(4-(Trifluoromethoxy)phenyl)-1,3,4-oxadiazol-2-yl)amino)pyridin-3-ol] | < 1000 |  | 
16 | O=c1cc(Nc2ncc(-c3ccc(C(F)(F)F)cn3)o2)ccn1O [Example 68, 1-Hydroxy-4-((5-(5-(trifluoromethyl)pyridin-2-yl)oxazol-2-yl)amino)pyridin-2(1H)-one] | < 1000 |  | 
17 | Cl.N=C(NO)c1ccc(Nc2nnc(-c3ccc(C(F)(F)F)cn3)o2)cn1 [Example 69, N′-Hydroxy-5-((5-(5-(trifluoromethyl)pyridin-2-yl)-1,3,4-oxadiazol-2-yl)amino)picolinimidamide] | > 1000 |  | % inhibition of Des1 at 1 μM ([1]; Jurkat cells, 1 μM): no inhibition
18 | N/C(=N/O)c1ccc(Nc2nnc(-c3ccc(Cl)cn3)o2)cn1 [Example 71, 5-((5-(5-Chloropyridin-2-yl)-1,3,4-oxadiazol-2-yl)amino)-N′-hydroxypicolinimidamide] | > 1000 | 13 | 
19 | Cn1nc(-c2ccc(C(F)(F)F)cn2)cc1Nc1ccc(/C(N)=N\O)nc1 [Example 76, N′-Hydroxy-5-((1-methyl-3-(5-(trifluoromethyl)pyridin-2-yl)-1H-pyrazol-5-yl)amino)picolinimidamide] | > 1000 | 8 | 
20 | Cn1nc(-c2ccc(C(F)(F)F)cc2)cc1Nc1ccc(/C(N)=N\O)nc1 [Example 77, N′-Hydroxy-5-((1-methyl-3-(4-(trifluoromethyl)phenyl)-1H-pyrazol-5-yl)amino)picolinimidamide] | > 1000 | 47 | 
21 | N/C(=N\O)c1ccc(Nc2nc(-c3ccc(Cl)cc3)no2)cn1 [Example 78, 5-((3-(4-chlorophenyl)-1,2,4-oxadiazol-5-yl)amino)-N′-hydroxypicolinimidamide] | < 1000 |  | 
22 | N/C(=N\O)c1cnc(Nc2nc(-c3ccc(Cl)cc3)no2)cn1 [Example 79, 5-((3-(4-chlorophenyl)-1,2,4-oxadiazol-5-yl)amino)-N′-hydroxypyrazine-2-carboximidamide] | < 1000 |  | 
23 | N/C(=N\O)c1ccc(Nc2nc(-c3ccc(Cl)cn3)no2)cn1 [Example 80, 5-((3-(5-Chloropyridin-2-yl)-1,2,4-oxadiazol-5-yl)amino)-N′-hydroxypicolinimidamide] | > 1000 | 24 | 
24 | N/C(=N\O)c1cnc(Nc2nc(-c3ccc(Cl)cn3)no2)cn1 [Example 81, 5-((3-(5-Chloropyridin-2-yl)-1,2,4-oxadiazol-5-yl)amino)-N′-hydroxypyrazine-2-carboximidamide] | > 1000 | 7 | 
25 | N/C(=N\O)c1cnc(Nc2nc(-c3ccc(C(F)(F)F)cc3)no2)cn1 [Example 83, N′-Hydroxy-5-((3-(4-(trifluoromethyl)phenyl)-1,2,4-oxadiazol-5-yl)amino)pyrazine-2-carboximidamide] | < 1000 |  | 
26 | N/C(=N\O)c1cnc(Nc2nc(-c3ccc(C(F)(F)F)cn3)no2)cn1 [Example 85, N′-hydroxy-5-((3-(5-(trifluoromethyl)pyridin-2-yl)-1,2,4-oxadiazol-5-yl)amino)pyrazine-2-carboximidamide] | > 1000 | 15 | 
27 | N/C(=N\O)c1ccc(Nc2nc(-c3ccc(OC(F)(F)F)cn3)no2)cn1 [Example 88, N′-hydroxy-5-((3-(5-(trifluoromethoxy)pyridin-2-yl)-1,2,4-oxadiazol-5-yl)amino)picolinimidamide] | > 1000 | 29 | 

Source: patent US12448371B2, “Inhibitor compounds” (Cincera Therapeutics Pty Ltd, priority 2019, dated 2025)
